Experimental data published in PMC7083837 (Nature Communications, 2020).
“And” between values parts separate entries of the source, which are not always exact repeats. Identical values can stand only once.

How the values were obtained:
SERT WT [1] = biological target: T1, SERT WT (Homo sapiens, UniProt P31645); assay: [3H]IMI dissociation rate assay (allosteric potency); assay type: binding;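 note: membranes of COS-7 cells transiently expressing hSERT, dissociation of prebound radioligand tracked by filtration over seven time points (5–70 min), rate constant with test ligand expressed relative to buffer-only rate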
T1 construct: expressed in transfected cells; host or cells: COS-7
T1 sequence (P31645 whole entry): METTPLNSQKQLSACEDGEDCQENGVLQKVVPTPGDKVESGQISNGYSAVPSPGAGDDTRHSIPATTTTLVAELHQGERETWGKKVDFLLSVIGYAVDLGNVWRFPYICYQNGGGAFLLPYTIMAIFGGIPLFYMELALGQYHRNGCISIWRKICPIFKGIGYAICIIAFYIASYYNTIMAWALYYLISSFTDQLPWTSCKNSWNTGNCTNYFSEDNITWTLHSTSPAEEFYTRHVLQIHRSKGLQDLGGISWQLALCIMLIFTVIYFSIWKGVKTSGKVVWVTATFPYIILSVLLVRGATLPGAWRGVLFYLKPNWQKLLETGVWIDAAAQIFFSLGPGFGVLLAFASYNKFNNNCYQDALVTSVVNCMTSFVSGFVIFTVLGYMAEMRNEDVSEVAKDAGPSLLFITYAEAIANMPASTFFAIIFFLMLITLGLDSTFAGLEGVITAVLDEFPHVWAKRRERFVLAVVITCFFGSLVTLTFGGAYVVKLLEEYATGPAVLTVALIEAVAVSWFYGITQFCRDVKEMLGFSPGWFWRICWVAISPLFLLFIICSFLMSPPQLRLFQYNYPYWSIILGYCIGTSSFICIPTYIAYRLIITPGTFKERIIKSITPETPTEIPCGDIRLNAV

SERT F556R = biological target: T2, SERT F556R (Homo sapiens, UniProt P31645, F556R); assay: [3H]5-HT uptake in intact COS-7 cells; assay type: cell-based; conditions: for 5-HT uptake inhibition by Lu AF60097: Fig 5A
T2 construct: expressed in transfected cells; host or cells: COS-7
T2 sequence (P31645 whole entry F556R): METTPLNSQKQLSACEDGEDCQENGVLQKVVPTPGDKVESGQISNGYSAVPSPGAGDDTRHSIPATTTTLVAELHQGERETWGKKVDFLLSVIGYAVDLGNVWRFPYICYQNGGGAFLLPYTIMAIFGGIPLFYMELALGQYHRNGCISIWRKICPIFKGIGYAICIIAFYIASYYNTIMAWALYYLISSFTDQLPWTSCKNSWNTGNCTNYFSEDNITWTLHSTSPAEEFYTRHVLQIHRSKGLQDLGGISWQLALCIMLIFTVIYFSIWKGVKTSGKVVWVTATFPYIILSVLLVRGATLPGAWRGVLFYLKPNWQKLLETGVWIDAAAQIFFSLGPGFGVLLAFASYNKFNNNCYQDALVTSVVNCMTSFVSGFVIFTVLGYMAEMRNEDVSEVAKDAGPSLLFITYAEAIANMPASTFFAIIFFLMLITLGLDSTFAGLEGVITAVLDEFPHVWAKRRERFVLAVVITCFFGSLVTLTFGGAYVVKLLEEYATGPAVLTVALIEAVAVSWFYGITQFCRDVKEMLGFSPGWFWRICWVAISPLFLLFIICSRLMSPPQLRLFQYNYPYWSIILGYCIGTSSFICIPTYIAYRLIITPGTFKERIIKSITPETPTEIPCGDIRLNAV

SERT WT [2] = biological target: T1, SERT WT; assay: [3H]5-HT uptake in intact COS-7 cells; assay type: cell-based; set-up: 5-HT uptake: unit not given here; conditions: for 5-HT uptake: Fig 5B

NC(=O)c1ccc2c(c1)CO[C@@]2(CCCN1CCC(c2ccc3ccc(=O)[nH]c3c2)CC1)c1ccc(F)cc1 [Lu AF60097, (S)-1-(4-fluorophenyl)-1-(3-(4-(2-oxo-1,2-dihydroquinolin-7-yl)piperidin-1-yl)propyl)-1,3-dihydroisobenzofuran-5-carboxamide]
Higher allosteric potency with prebound [^3H]IMI relative to prebound [^3H]S-CIT (SERT WT [1]; SERT WT): 200 fold | [^3H]IMI dissociation relative to control (source data Fig 3C) (SERT WT [1]; SERT WT, log conc -5.4318): 0.0325 | [^3H]IMI dissociation relative to control (source data Fig 3C) (SERT WT [1]; SERT WT, log conc -7.3398): 0.5967 and 0.5153 and 0.3551 and 0.4862 and 0.4455 | [^3H]IMI dissociation relative to control (source data Fig 3C) (SERT WT [1]; SERT WT, log conc -7.817): 0.6907 and 0.7383 and 0.5957 and 0.7538 and 0.5364 | [^3H]IMI dissociation relative to control (source data Fig 3C) (SERT WT [1]; SERT WT, log conc -8.2941): 0.7767 and 0.8969 and 0.8389 and 0.8612 and 0.685 | [^3H]IMI dissociation relative to control (source data Fig 3C) (SERT WT [1]; SERT WT, log conc -8.7712): 0.9679 and 0.8619 | IC50 (SERT WT [1]; SERT WT, read-out: Allosteric potency inhibition of [^3H]IMI dissociation (IC50)): 31.4 nM and 31 nM | Gain in allosteric potency relative to any other reported S2-bound hSERT ligand (SERT WT [1]; comparison with ref 22): > 100 fold | Increase in allosteric potency compared with citalopram (SERT WT [1]; in the presence of S1:IMI): > 150 fold | 5-HT uptake inhibition by Lu AF60097 (SERT F556R; [Lu AF60097] -5.5): 0.1354 | 5-HT uptake inhibition by Lu AF60097 (SERT F556R; [Lu AF60097] -6): 0.2671 | 5-HT uptake inhibition by Lu AF60097 (SERT F556R; [Lu AF60097] -6.5): 0.5785 | 5-HT uptake inhibition by Lu AF60097 (SERT F556R; [Lu AF60097] -7): 0.7467 | 5-HT uptake inhibition by Lu AF60097 (SERT F556R; [Lu AF60097] -7.5): 0.9156 | 5-HT uptake inhibition by Lu AF60097 (SERT F556R; [Lu AF60097] -8): 0.9992 | 5-HT uptake inhibition by Lu AF60097 (SERT F556R; [Lu AF60097] -9): 0.9608 | 5-HT uptake inhibition by Lu AF60097 (SERT F556R; [Lu AF60097] -10): 1.013 | Ki (SERT F556R; SERT F556R): 260 nM | Vmax 5-HT (SERT WT [2]; 10 nM Lu AF60097): 1232 ± 48 fmol/min | Vmax 5-HT (SERT WT [2]; 20 nM Lu AF60097): 1279 ± 64 fmol/min | Vmax 5-HT (SERT WT [2]; 40 nM Lu AF60097): 1007 ± 58 fmol/min | Vmax 5-HT (SERT WT [2]; 80 nM Lu AF60097): 1361 ± 78 fmol/min | Vmax 5-HT (SERT WT [2]; 160 nM Lu AF60097): 1235 ± 34 fmol/min | Vmax 5-HT (SERT WT [2]; 320 nM Lu AF60097): 973 ± 25 fmol/min | Vmax 5-HT (SERT WT [2]; 640 nM Lu AF60097): 971 ± 21 fmol/min | inhibition at 0.027 µM (SERT WT [2]; COS-7, read-out: Decrease (inhibition) of [^3H]5-HT uptake relative to control, IMI 4 nM, Lu AF60097 27 nM, alone or together): 5 ± 1.8% | 5-HT uptake (SERT WT [2]; 0.1474 µM 5HT, 10 nM AF60097): 289.4 and 268.7 and 257.4 and 246.6 and 314.6 | 5-HT uptake (SERT WT [2]; 0.1474 µM 5HT, 20 nM AF60097): 295.7 and 305.6 and 246.2 and 292.1 and 271.4 | 5-HT uptake (SERT WT [2]; 0.1474 µM 5HT, 80 nM AF60097): 149 and 175.1 and 138.2 and 177.3 and 172.8 | 5-HT uptake (SERT WT [2]; 0.1474 µM 5HT, 160 nM AF60097): 193.5 and 184.1 and 172.4 and 177.3 and 155.3 | 5-HT uptake (SERT WT [2]; 0.1474 µM 5HT, 320 nM AF60097): 124.2 and 120.2 and 98.55 and 160.4 and 125 | 5-HT uptake (SERT WT [2]; 0.1474 µM 5HT, 640 nM AF60097): 82.89 and 76.41 and 75.6 and 73.71 | 5-HT uptake (SERT WT [2]; 0.2395 µM 5HT, 10 nM AF60097): 401.9 and 351.5 and 378.9 and 356.9 and 437.9 | 5-HT uptake (SERT WT [2]; 0.2395 µM 5HT, 20 nM AF60097): 431.1 and 402.3 and 370.8 and 428 and 381.2 | 5-HT uptake (SERT WT [2]; 0.2395 µM 5HT, 80 nM AF60097): 239.4 and 237.2 and 197.1 and 278.1 and 258.3 | 5-HT uptake (SERT WT [2]; 0.2395 µM 5HT, 160 nM AF60097): 283.1 and 275.9 and 262.8 and 254.3 and 202.5 | 5-HT uptake (SERT WT [2]; 0.2395 µM 5HT, 320 nM AF60097): 170.4 and 178.2 and 155 and 215.5 and 193.6 | 5-HT uptake (SERT WT [2]; 0.2395 µM 5HT, 640 nM AF60097): 119.3 and 114.2 and 108 and 121.2 | 5-HT uptake (SERT WT [2]; 0.4844 µM 5HT, 10 nM AF60097): 585 | 5-HT uptake (SERT WT [2]; 0.4844 µM 5HT, 20 nM AF60097): 624.2 and 642.2 and 563.4 and 555.8 and 512.1 | 5-HT uptake (SERT WT [2]; 0.4844 µM 5HT, 160 nM AF60097): 469.4 and 426.6 and 404.6 and 365.9 and 356 | 5-HT uptake (SERT WT [2]; 0.4844 µM 5HT, 320 nM AF60097): 301.6 and 284.3 and 264.9 | 5-HT uptake relative to ctrl (ctrl = 100) (SERT WT [2]; Fig 5C, 27 nM AF60097): 100 and 97 and 96 and 91 and 88 | [^3H]5-HT uptake (in % of buffer/control) (SERT WT [2]; IMI 4 nM, Lu AF60097 27 nM, alone or together): 95 ± 1.8% | Ki (SERT WT [2]; SERT WT): 220 nM | IC50 (SERT WT [2]; hSERT in COS-7 cells): 207 nM
